From patent publication US10988474B2, “Compounds acting at multiple prostaglandin receptors giving a general anti-inflammatory response” (ALLERGAN, INC., priority 2011, dated 2021)

Key:
Format in all cases: cell-based
[1] = target: T1, human prostanoid TP receptor (Homo sapiens, UniProt P21731); assay: FLIPR Ca2+ signaling PG antagonist assay, TP stable cell line; conditions: HEK-293 EBNA cells, human recombinant TP, no exogenous G-protein; standard agonist U-46619
T1 construct: expressed in transfected cells
T1 sequence (P21731 1-343): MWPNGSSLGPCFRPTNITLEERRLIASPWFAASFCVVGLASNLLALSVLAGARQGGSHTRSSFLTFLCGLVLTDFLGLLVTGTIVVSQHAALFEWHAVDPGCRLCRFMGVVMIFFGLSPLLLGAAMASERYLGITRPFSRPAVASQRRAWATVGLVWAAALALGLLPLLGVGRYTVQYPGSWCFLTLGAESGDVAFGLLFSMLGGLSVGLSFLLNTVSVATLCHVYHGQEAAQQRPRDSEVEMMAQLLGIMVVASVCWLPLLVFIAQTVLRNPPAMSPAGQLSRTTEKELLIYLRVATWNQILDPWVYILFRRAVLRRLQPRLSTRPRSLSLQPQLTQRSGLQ
Description: (§1) The above compounds were tested for PG antagonist activity as follows using human recombinant prostanoid receptor (DP1, EP1-4, FP, IP and TP) stable cell lines: In order to measure the response of Gs and Gi coupled prostanoid receptors as a Ca^2+ signal, chimeric G protein cDNAs were used. Stable cell lines over-expressing human prostanoid DP1, EP1-4, FP, IP, and TP receptors were established as follows:
(§2) Briefly, human prostanoid DP1, EP2, and EP4 receptor cDNAs were co-transfected with chimeric Gqs cDNA containing a haemagglutanin (HA) epitope; human prostanoid EP3 receptors were co-transfected with chimeric Gqi-HA; human EP1, FP, IP, and TP receptor cDNAs were expressed with no exogenous G-proteins. Gqs and Gqi chimeric cDNAs (Molecular Devices, Sunnyvale, Calif., U.S.A.), as well as cDNAs of prostanoid receptors, were cloned into a pCEP4 vector with a hygromycin B selection marker. Transfection into HEK-293 EBNA (Epstein-Barr virus nuclear antigen) cells was achieved by the FuGENE 6 transfection Reagent (Roche Applied Science, Indianapolis, Ind., USA). Stable transfectants were selected according to hygromycin resistance. Because Gqs and Gqi contained an HA epitope, G-protein expression was detected by Western blotting analysis using anti-mouse HA monoclonal antibody and horseradish peroxidase (HRP)-conjugated secondary antibody, while functional expression of prostanoid receptors was detected by FLIPR screening (Matias et al., 2004). These stable cell lines were validated using previously published antagonists at 10 μM against serial dilutions of standard agonists by FLIPR functional assays for Ca^2+ Signaling (as described below).
(§3) Ca^2+ signaling studies were performed using a FLIPR TETRA system (Molecular Devices, Sunnyvale, Calif., USA) in the 384-format. This is a high-throughput instrument for cell-based assays to monitor Ca^2+ signaling associated with GPCRs and ion channels. Cells were seeded at a density of 5×10^4 cells/well in BioCoat poly-D-lysine coated, black wall, clear bottom 384-well plates (BD Biosciences, Franklin lakes, NJ, USA) and allowed to attach overnight in an incubator at 37° C. The cells were then washed twice with HBSS-HEPES buffer (Hanks' balanced salt solution without bicarbonate and phenol red, 20 mM HEPES, pH 7.4) using an ELx405 Select CW Microplate Washer (BioTek, Winooski, Vt., USA). After 60 min of dye-loading in the dark using the Ca^2+-sensitive dye Fluo-4AM (Invitrogen, Carlsbad, Calif., USA), at a final concentration of 2×10^−6M, the plates were washed 4 times with HBSS-HEPES buffer to remove excess dye and leaving 50 μl of buffer in each well. The plates were then placed in the FLIPR TETRA instrument and allowed to equilibrate at 37° C. Compounds were added in a 25 μl volume to each well to give final concentrations of 0.1 μM, 0.3 μM, 1 μM, 3 μM, 10 μM, and 30 μM; or 0.067 μM, 0.1 μM, 0.2 μM, 0.3 μM, 0.67 μM, and 1 μM for cells over-expressing TP receptors. After 4.5 minutes, a 7-point serial dilution of the standard agonist for the corresponding receptor, in a 25 μl volume was injected at the final concentrations from 10^−11M to 10^−5M in 10-fold serial dilution increments for cells expressing human recombinant DP1, EP1, EP2, EP3, EP4, FP, and IP receptors. The dose range for the standard agonist for human recombinant TP receptors was from 10^−12M to 10^−6M. HBSS-HEPES buffer was used as the negative control for the standard agonists. Cells were excited with LED (light emitting diode) excitation at 470-495 nm and emission was measured through an emission filter at 515-575 nm. Assay plates were read for 3.5 minutes using the FLIPR^TETRA. The peak increase in fluorescence intensity was recorded for each well. On each plate, negative controls, dose response of positive controls, and co-treatments of antagonist-agonist for each dose were in triplicates. Standard agonists were as follows: DP=BW 245C, EP1-EP4=PGE2, FP=17-phenyl-PGF2α, IP=Cicaprost, and TP=U-46619. […]

[2] = target: T2, human prostanoid EP2 receptor (Homo sapiens, UniProt P43116); assay: FLIPR Ca2+ signaling PG antagonist assay, EP2 stable cell line; conditions: HEK-293 EBNA cells, human recombinant EP2 with chimeric Gqs; standard agonist PGE2
T2 construct: expressed in transfected cells
Description: as §1, §2, §3

[3] = target: T3, human prostanoid IP receptor (Homo sapiens, UniProt P43119); assay: FLIPR Ca2+ signaling PG antagonist assay, IP stable cell line; conditions: HEK-293 EBNA cells, human recombinant IP, no exogenous G-protein; standard agonist Cicaprost
T3 construct: expressed in transfected cells
Description: as §1, §2, §3

[4] = target: T4, human prostanoid EP3 receptor (Homo sapiens, UniProt P43115); assay: FLIPR Ca2+ signaling PG antagonist assay, EP3 stable cell line; conditions: HEK-293 EBNA cells, human recombinant EP3 with chimeric Gqi; standard agonist PGE2
T4 construct: expressed in transfected cells
T4 sequence (P43115 1-390): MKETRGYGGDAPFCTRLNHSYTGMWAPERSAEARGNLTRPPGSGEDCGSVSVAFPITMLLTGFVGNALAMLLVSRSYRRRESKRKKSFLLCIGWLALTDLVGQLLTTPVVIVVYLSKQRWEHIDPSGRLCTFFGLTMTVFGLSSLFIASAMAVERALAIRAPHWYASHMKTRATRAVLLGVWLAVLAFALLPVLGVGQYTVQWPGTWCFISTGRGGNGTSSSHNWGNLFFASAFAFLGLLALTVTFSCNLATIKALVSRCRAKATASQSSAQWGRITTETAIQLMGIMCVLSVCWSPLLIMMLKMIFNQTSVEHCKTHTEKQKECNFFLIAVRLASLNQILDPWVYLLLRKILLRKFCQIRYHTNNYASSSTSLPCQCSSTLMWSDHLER
Description: as §1, §2, §3

[5] = target: T5, human prostanoid FP receptor (Homo sapiens, UniProt P43088); assay: FLIPR Ca2+ signaling PG antagonist assay, FP stable cell line; conditions: HEK-293 EBNA cells, human recombinant FP, no exogenous G-protein; standard agonist 17-phenyl-PGF2α
T5 construct: expressed in transfected cells
Description: as §1, §2, §3

[6] = target: T6, human prostanoid EP4 receptor (Homo sapiens, UniProt P35408); assay: FLIPR Ca2+ signaling PG antagonist assay, EP4 stable cell line; conditions: HEK-293 EBNA cells, human recombinant EP4 with chimeric Gqs; standard agonist PGE2
T6 construct: expressed in transfected cells
Description: as §1, §2, §3

T3 sequence (P43119 whole entry): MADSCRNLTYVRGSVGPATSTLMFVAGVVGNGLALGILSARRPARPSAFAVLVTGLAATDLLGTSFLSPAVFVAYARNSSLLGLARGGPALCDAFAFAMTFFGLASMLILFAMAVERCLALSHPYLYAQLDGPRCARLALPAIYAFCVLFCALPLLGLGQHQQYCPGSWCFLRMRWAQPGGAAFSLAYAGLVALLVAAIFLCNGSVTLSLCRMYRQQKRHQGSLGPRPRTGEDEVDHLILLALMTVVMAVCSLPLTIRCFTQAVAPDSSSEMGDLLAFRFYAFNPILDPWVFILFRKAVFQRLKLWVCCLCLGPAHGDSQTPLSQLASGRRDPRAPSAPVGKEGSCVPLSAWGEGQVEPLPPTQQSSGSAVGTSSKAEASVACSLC
T5 sequence (P43088 whole entry): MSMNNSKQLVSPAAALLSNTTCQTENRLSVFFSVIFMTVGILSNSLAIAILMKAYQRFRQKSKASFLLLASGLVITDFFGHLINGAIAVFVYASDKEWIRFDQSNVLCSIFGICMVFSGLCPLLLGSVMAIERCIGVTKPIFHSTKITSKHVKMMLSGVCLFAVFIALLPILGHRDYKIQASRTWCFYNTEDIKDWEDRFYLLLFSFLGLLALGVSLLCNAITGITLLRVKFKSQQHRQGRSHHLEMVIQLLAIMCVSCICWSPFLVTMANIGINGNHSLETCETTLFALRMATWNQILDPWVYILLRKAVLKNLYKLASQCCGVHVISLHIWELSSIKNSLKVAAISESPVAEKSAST
T6 sequence (P35408 whole entry): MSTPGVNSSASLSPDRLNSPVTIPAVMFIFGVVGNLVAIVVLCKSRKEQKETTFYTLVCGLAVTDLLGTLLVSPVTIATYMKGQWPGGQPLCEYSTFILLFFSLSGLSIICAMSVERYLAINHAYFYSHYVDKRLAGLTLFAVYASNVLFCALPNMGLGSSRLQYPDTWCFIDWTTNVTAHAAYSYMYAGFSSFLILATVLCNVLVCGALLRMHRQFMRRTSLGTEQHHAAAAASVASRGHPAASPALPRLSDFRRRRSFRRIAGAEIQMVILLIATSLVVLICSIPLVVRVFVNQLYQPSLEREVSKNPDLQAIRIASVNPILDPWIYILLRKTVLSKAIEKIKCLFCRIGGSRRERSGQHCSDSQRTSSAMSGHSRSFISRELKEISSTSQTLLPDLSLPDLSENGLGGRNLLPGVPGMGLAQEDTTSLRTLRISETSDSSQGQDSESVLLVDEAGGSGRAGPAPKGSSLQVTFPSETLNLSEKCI
T2 sequence (P43116 whole entry): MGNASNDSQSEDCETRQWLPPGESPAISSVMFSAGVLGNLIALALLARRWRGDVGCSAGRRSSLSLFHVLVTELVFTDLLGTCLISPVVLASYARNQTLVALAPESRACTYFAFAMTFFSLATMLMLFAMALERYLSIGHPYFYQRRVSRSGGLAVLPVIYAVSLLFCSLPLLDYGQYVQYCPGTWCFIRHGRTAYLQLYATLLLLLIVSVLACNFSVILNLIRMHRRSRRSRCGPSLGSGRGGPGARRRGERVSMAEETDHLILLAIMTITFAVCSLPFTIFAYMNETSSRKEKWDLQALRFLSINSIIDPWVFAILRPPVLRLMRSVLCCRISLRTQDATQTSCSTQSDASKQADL

Row | TP (Kb, PG antagonist activity) [1] | Structure (SMILES) | Kb [1] | Kb [2] | Kb [3] | Kb [4] | Kb [5] | Kb [6] | FP (Kb, PG antagonist activity) [5]
1 | – | CCC(CC)COc1ccc(Br)cc1Cn1nc(C)c2cc(C(=O)O)cnc21 [Example 59, 1-[5-Bromo-2-(2-Ethyl-Butoxy)-Benzyl]-3-Methyl-1H-Pyrazolo[3,4-B]Pyridine-5-Carboxylic Acid] | 0.32 µM | ≥ 10 µM | 0.54 µM | 5.4 µM | 1.3 µM | 0.19 µM | –
2 | – | CC(C)COc1ccc(OC(F)F)cc1Cn1ncc2cc(C(=O)O)ccc21 [Example 56, 1-(5-Difluoromethoxy-2-Isobutoxy-Benzyl)-1H-Indazole-5-Carboxylic Acid] | 0.005 µM | ≥ 10 µM | 4.1 µM | 8.8 µM | 0.024 µM | 0.15 µM | –
3 | – | CC(C)COc1ccc(S(C)(=O)=O)cc1Cn1ncc2cc(C(=O)O)ccc21 [Example 48, 1-(2-Isobutoxy-5-Methanesulfonyl-Benzyl)-1H-Indazole-5-Carboxylic Acid] | 0.5 µM | ≥ 10 µM | ≥ 10 µM | ≥ 10 µM | ≥ 10 µM | ≥ 10 µM | –
4 | – | CC(C)(O)COc1ccc(Br)cc1Cn1ncc2cc(C(=O)O)ccc21 [Example 53, 1-[5-Bromo-2-(2-Hydroxy-2-Methyl-Propoxy)-Benzyl]-1H-Indazole-5-Carboxylic Acid] | 1.2 µM | ≥ 10 µM | ≥ 10 µM | ≥ 10 µM | 0.23 µM | ≥ 10 µM | –
5 | – | CC(C)COc1cc(Cl)c(Cl)cc1Cn1ncc2cc(C(=O)O)ccc21 [Example 49, 1-(4,5-Dichloro-2-Isobutoxy-Benzyl)-1H-Indazole-5-Carboxylic Acid] | 0.006 µM | ≥ 10 µM | 3.2 µM | ≥ 10 µM | 0.07 µM | 0.05 µM | –
6 | – | CCC(CC)COc1ccc(Br)cc1Cn1ccc2cc(C(=O)O)ccc21 [Example 69, 1-[5-Bromo-2-(2-Ethyl-Butoxy)-Benzyl]-1H-Indole-5-Carboxylic Acid] | 0.55 µM | ≥ 10 µM | 3 µM | 7.9 µM | 0.8 µM | 0.13 µM | –
7 | – | CC(C)COc1ccc(Br)cc1Cn1cnc2cc(C(=O)O)ccc21 [Example 79, 1-(5-Bromo-2-Isobutoxy-Benzyl)-1H-Benzoimidazole-5-Carboxylic Acid] | 0.008 µM | ≥ 10 µM | 7 µM | 8.7 µM | 0.08 µM | 0.08 µM | –
8 | – | CCC(CC)COc1ccc(Cl)cc1Cn1ncc2ccc(C(=O)O)cc21 [Example 6] | 0.15 µM | ≥ 10 µM | ≥ 10 µM | ≥ 10 µM | 2.4 µM | ≥ 10 µM | –
9 | – | Cc1cn(Cc2cc(OC(F)(F)F)ccc2OCC(C)C)c2ccc(C(=O)O)cc12 [Example 75, 1-(2-Isobutoxy-5-Trifluoromethoxy-Benzyl)-3-Methyl-1H-Indole-5-Carboxylic Acid] | 0.3 µM | 6.4 µM | 4.4 µM | ≥ 10 µM | 0.33 µM | 0.28 µM | –
10 | PAgonist | O=C(O)c1ccc2c(cnn2Cc2cc(Cl)ccc2OCc2ccc(Cl)cc2)c1 [Example 9, 1-[5-Chloro-2-(4-Chloro-Benzyloxy)-Benzyl]-1H-Indazole-5-Carboxylic Acid] | – | 3.2 µM | 1.35 µM | 4.9 µM | 0.02 µM | 3 µM | –
11 | – | CC(C)COc1ccc(OC(F)(F)F)cc1Cn1ncc2cc(C(=O)O)ccc21 [Example 20, 1-(2-Isobutoxy-5-Trifluoromethoxy-Benzyl)-1H-Indazole-5-Carboxylic Acid] | 0.05 µM | ≥ 10 µM | 2.7 µM | ≥ 10 µM | 0.013 µM | 0.03 µM | –
12 | – | CCC(CC)COc1ccc(Cl)cc1Cn1ncc2cc(C(=O)O)ccc21 [Example 2, 1-[5-Chloro-2-(2-Ethyl-Butoxy)-Benzyl]-1H-Indazole-5-Carboxylic ACID] | 0.11 µM | 2.9 µM | 1.1 µM | 1.1 µM | 0.16 µM | 0.02 µM | –
13 | – | CCC(CC)COc1ccc(C(F)(F)F)cc1Cn1nc(C)c2cc(C(=O)O)ccc21 [Example 26, 1-[2-(2-Ethyl-Butoxy)-5-Trifluoromethyl-Benzyl]-3-Methyl-1H-Indazole-5-Carboxylic Acid] | 0.018 µM | ≥ 10 µM | 1.8 µM | 3.3 µM | 0.5 µM | 0.07 µM | –
14 | – | CCc1nn(Cc2cc(Br)ccc2OCC(C)C)c2ccc(C(=O)O)cc12 [Example 64, 1-(5-Bromo-2-Isobutoxy-Benzyl)-3-Ethyl-1H-Indazole-5-Carboxylic Acid] | 0.008 µM | 3.1 µM | 0.7 µM | 2.9 µM | 0.19 µM | 0.05 µM | –
15 | – | CC(C)COc1ccc(OC(F)(F)F)cc1Cn1ncc2cc(C(=O)O)cnc21 [Example 58, 1-(2-Isobutoxy-5-Trifluoromethoxy-Benzyl)-1H-Pyrazolo[3,4-B]Pyridine-5-Carboxylic Acid] | 0.07 µM | ≥ 10 µM | ≥ 10 µM | 9.8 µM | 0.06 µM | 0.38 µM | –
16 | – | CCc1nn(Cc2cc(Br)ccc2OCC(CC)CC)c2ccc(C(=O)O)cc12 [Example 65, 1-[5-Bromo-2-(2-Ethyl-Butoxy)-Benzyl]-3-Ethyl-1H-Indazole-5-Carboxylic Acid] | 0.052 µM | 6.5 µM | 0.88 µM | 4.7 µM | – | 0.055 µM | PAg
